{"source": "patent US20220402950A1", "about": "“SUBSTITUTED BENZIMIDAZOLES AS PAD4 INHIBITORS” (BRISTOL-MYERS SQUIBB COMPANY, priority 2018, published 2022)"}
{"molecular_target": "human PAD4 (hPAD4) (Homo sapiens, UniProt Q9UM07)", "sequence (Q9UM07 whole entry)": "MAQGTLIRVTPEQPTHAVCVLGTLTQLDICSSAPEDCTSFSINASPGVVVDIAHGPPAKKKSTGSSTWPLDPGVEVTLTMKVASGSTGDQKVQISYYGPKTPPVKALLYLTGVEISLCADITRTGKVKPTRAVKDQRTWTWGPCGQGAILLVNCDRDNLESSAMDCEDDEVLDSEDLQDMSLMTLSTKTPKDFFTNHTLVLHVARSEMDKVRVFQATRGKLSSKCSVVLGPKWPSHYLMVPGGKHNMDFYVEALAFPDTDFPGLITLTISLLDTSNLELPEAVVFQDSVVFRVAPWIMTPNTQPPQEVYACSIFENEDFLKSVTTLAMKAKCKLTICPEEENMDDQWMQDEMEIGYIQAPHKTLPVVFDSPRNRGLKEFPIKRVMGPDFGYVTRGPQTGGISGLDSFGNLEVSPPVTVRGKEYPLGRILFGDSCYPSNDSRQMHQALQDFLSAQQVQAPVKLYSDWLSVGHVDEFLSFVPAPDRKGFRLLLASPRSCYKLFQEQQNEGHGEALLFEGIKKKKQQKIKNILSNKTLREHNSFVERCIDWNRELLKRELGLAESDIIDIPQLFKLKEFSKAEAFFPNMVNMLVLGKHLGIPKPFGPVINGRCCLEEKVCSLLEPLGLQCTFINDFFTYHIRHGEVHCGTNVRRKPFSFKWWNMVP", "experiment": "RFMS Human PAD4 Functional Assay", "format": "biochemical", "conditions": "hPAD4 RFMS IC50, human PAD4, rapid-fire mass spectrum (RFMS) assay; 5 nM hPAD4, 250 μM BAEE", "procedure,_shortened": "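RapidFire ESI-MS quantification, normalised to a modified-citrulline internal standard, after phenyl glyoxal (final 4 mM) derivatisation of the TCA-quenched reaction. The enzyme (10 nM) sat 30 min with compound (up to 50 μM final) before 500 μM BAEE (as added) started a 90 min, 37 °C reaction. Buffer: HEPES pH 7.5, 50 μM calcium, 5 μM TPEN.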", "units": {"IC50": "µM"}}
{"smiles": "COc1cc(C(=O)N2C[C@H]3CC[C@@H]2[C@@H]3N)cc2nc(-c3cc4cccc(C5=CCC5)c4n3CC3CC3)n(C)c12", "note": "[Example 219, ((1R,4R,7R)-7-amino-2-azabicyclo[2.2.1]heptan-2-yl)(2-(7-(cyclobut-1-en-1-yl)-1-(cyclopropylmethyl)-1H-indol-2-yl)-7-methoxy-1-methyl-1H-benzo[d]imidazol-5-yl)methanone]", "IC50": 0.052}
{"smiles": "COc1cc(C(=O)N2C[C@H]3CC[C@@H]2[C@@H]3N)cc2nc(-c3cc4cccc(C5=CCN(C(C)=O)CC5)c4n3CC3CC3)n(C)c12", "note": "[Example 220, 1-(4-(2-(5-((1R,4R,7R)-7-amino-2-azabicyclo[2.2.1]heptane-2-carbonyl)-7-methoxy-1-methyl-1H-benzo[d]imidazol-2-yl)-1-(cyclopropylmethyl)-1H-indol-7-yl)-3,6-dihydropyridin-1(2H)-yl)ethan-1-one]", "IC50": 0.043}
{"smiles": "COC(=O)N1CC=C(c2cccc3cc(-c4nc5cc(C(=O)N6C[C@H]7CC[C@@H]6[C@@H]7N)cc(OC)c5n4C)n(CC4CC4)c23)CC1", "note": "[Example 221, methyl 4-(2-(5-((1R,4R,7R)-7-amino-2-azabicyclo[2.2.1]heptane-2-carbonyl)-7-methoxy-1-methyl-1H-benzo[d]imidazol-2-yl)-1-(cyclopropylmethyl)-1H-indol-7-yl)-3,6-dihydropyridine-1(2H)-carboxylate]", "IC50": 0.077}
{"smiles": "COc1cc(C(=O)N2C[C@H]3CC[C@@H]2[C@@H]3N)cc2nc(-c3cc4cccc(-c5cccc(C(O)CO)c5)c4n3CC3CC3)n(C)c12", "note": "(stereo partly drawn) [Example 222, ((1R,4R,7R)-7-amino-2-azabicyclo[2.2.1]heptan-2-yl)(2-(1-(cyclopropylmethyl)-7-(3-(1,2-dihydroxyethyl)phenyl)-1H-indol-2-yl)-7-methoxy-1-methyl-1H-benzo[d]imidazol-5-yl)methanone]", "IC50": 0.094}
{"smiles": "COc1cc(C(=O)N2C[C@H]3CC[C@@H]2[C@@H]3N)cc2nc(-c3cc4cccc(-c5ccc(CNC(C)=O)c(CO)c5)c4n3CC3CC3)n(C)c12", "note": "[Example 223, N-(4-(2-(5-((1R,4R,7R)-7-amino-2-azabicyclo[2.2.1]heptane-2-carbonyl)-7-methoxy-1-methyl-1H-benzo[d]imidazol-2-yl)-1-(cyclopropylmethyl)-1H-indol-7-yl)-2-(hydroxymethyl)benzyl) acetamide]", "IC50": 0.088}
{"smiles": "COc1cc(C(=O)N2C[C@H]3CC[C@@H]2[C@@H]3N)cc2nc(-c3cc4cccc(C5CCN(C(=O)C6CC67CC7)CC5)c4n3CC3CC3)n(C)c12", "note": "(stereo partly drawn) [Example 224, (4-(2-(5-((1R,4R,7R)-7-amino-2-azabicyclo[2.2.1]heptane-2-carbonyl)-7-methoxy-1-methyl-1H-benzo[d]imidazol-2-yl)-1-(cyclopropylmethyl)-1H-indol-7-yl)piperidin-1-yl)(spiro[2.2]pentan-1-yl)methanone]", "IC50": 0.078}
{"smiles": "COc1cc(C(=O)N2C[C@H]3CC[C@@H]2[C@@H]3N)cc2nc(-c3cc4cccc(C5CCN(C(=O)C6CC6)CC5)c4n3CC3CC3)n(C)c12", "note": "[Example 225, (4-(2-(5-((1R,4R,7R)-7-amino-2-azabicyclo[2.2.1]heptane-2-carbonyl)-7-methoxy-1-methyl-1H-benzo[d]imidazol-2-yl)-1-(cyclopropylmethyl)-1H-indol-7-yl)piperidin-1-yl)(cyclopropyl)metha-none]", "IC50": 0.112}
{"smiles": "COCC(=O)N1CCC(c2cccc3cc(-c4nc5cc(C(=O)N6C[C@H](N)C[C@@H](F)C6)cc(OC)c5n4C)n(CC4CC4)c23)CC1", "note": "[Example 226, 1-(4-(2-(5-((3R,5R)-3-amino-5-fluoropiperidine-1-carbonyl)-7-methoxy-1-methyl-1H-benzo[d]imidazol-2-yl)-1-(cyclopropylmethyl)-1H-indol-7-yl)piperidin-1-yl)-2-methoxyethan-1-one]", "IC50": 0.053}
{"smiles": "COc1cc(C(=O)N2C[C@H](N)C[C@@H](F)C2)cc2nc(-c3cc4cccc(C5CCN(C(C)=O)CC5)c4n3CC3CC3)n(C)c12", "note": "[Example 227, 1-(4-(2-(5-((3R,5R)-3-amino-5-fluoropiperidine-1-carbonyl)-7-methoxy-1-methyl-1H-benzo[d]imidazol-2-yl)-1-(cyclopropylmethyl)-1H-indol-7-yl)piperidin-1-yl)ethan-1-one]", "IC50": 0.077}
{"smiles": "COc1cc(C(=O)N2C[C@H]3CC[C@@H]2[C@@H]3N)cc2nc(-c3cc4cccc(C5CN(C(=O)Nc6ccccc6)C5)c4n3CC3CC3)n(C)c12", "note": "[Example 228, 3-(2-(5-((1R,4R,7R)-7-amino-2-azabicyclo[2.2.1]heptane-2-carbonyl)-7-methoxy-1-methyl-1H-benzo[d]imidazol-2-yl)-1-(cyclopropylmethyl)-1H-indol-7-yl)-N-phenylazetidine-1-carboxamide]", "IC50": 0.041}
{"smiles": "COc1cc(C(=O)N2C[C@H]3CC[C@@H]2[C@@H]3N)cc2nc(-c3cc4cccc(C5CN(C(=O)Nc6ccc(F)cc6)C5)c4n3CC3CC3)n(C)c12", "note": "[Example 229, 3-(2-(5-((1R,4R,7R)-7-amino-2-azabicyclo[2.2.1]heptane-2-carbonyl)-7-methoxy-1-methyl-1H-benzo[d]imidazol-2-yl)-1-(cyclopropylmethyl)-1H-indol-7-yl)-N-(4-fluorophenyl)azetidine-1-carboxamide]", "IC50": 0.013}
{"smiles": "COCC(=O)N1CCC(c2cccc3cc(-c4nc5cc(C(=O)N6C[C@H]7CC[C@@H]6[C@@H]7N)cc(OC)c5n4C)n(CC4CC4)c23)CC1", "note": "[Example 230, 1-(4-(2-(5-((1R,4R,7R)-7-amino-2-azabicyclo[2.2.1]heptane-2-carbonyl)-7-methoxy-1-methyl-1H-benzo[d]imidazol-2-yl)-1-(cyclopropylmethyl)-1H-indol-7-yl)piperidin-1-yl)-2-methoxyethan-1-one]", "IC50": 0.021}
{"smiles": "COc1cc(C(=O)N2C[C@H]3CC[C@@H]2[C@@H]3N)cc2nc(-c3cc4cccc(C5CCN(C(=O)CC#N)CC5)c4n3CC3CC3)n(C)c12", "note": "[Example 231, 3-(4-(2-(5-((1R,4R,7R)-7-amino-2-azabicyclo[2.2.1]heptane-2-carbonyl)-7-methoxy-1-methyl-1H-benzo[d]imidazol-2-yl)-1-(cyclopropylmethyl)-1H-indol-7-yl)piperidin-1-yl)-3-oxopropanenitrile]", "IC50": 0.066}
{"smiles": "COc1cc(C(=O)N2C[C@H]3CC[C@@H]2[C@@H]3N)cc2nc(-c3cc4cccc(C5CCN(C(=O)COCC(F)(F)F)CC5)c4n3CC3CC3)n(C)c12", "note": "[Example 232, 1-(4-(2-(5-((1R,4R,7R)-7-amino-2-azabicyclo[2.2.1]heptane-2-carbonyl)-7-methoxy-1-methyl-1H-benzo[d]imidazol-2-yl)-1-(cyclopropylmethyl)-1H-indol-7-yl)piperidin-1-yl)-2-(2,2,2-trifluoroethoxy)ethan-1-one]", "IC50": 0.019}
{"smiles": "COc1cc(C(=O)N2C[C@H]3CC[C@@H]2[C@@H]3N)cc2nc(-c3cc4cccc(C5CCN(C(=O)C(OC)C6CC6)CC5)c4n3CC3CC3)n(C)c12", "note": "(stereo partly drawn) [Example 233, 1-(4-(2-(5-((1R,4R,7R)-7-amino-2-azabicyclo[2.2.1]heptane-2-carbonyl)-7-methoxy-1-methyl-1H-benzo[d]imidazol-2-yl)-1-(cyclopropylmethyl)-1H-indol-7-yl)piperidin-1-yl)-2-cyclopropyl-2-methoxyethan-1-one]", "IC50": 0.063}
